Patent US7666843B2, “Methods and compositions for treatment of neurological disorder” (Children's Medical Center Corporation, priority 2002, dated 2010)
Entries after “also recorded” stand apart in the source; their conditions may differ.

Columns and labels:
[1] = system: goldfish retinal ganglion cells; experiment: Goldfish retinal ganglion cell culture, axon outgrowth bioassay; format: cell-based; details: goldfish RGCs; for axon outgrowth in response to monosaccharides: sugar alone, 50 or 100 μM, D-configuration, FIG. 7a; for axon outgrowth, extracellular 6-phosphate: FIG. 8f; for axon outgrowth in response to glucose/mannose analogs: analog alone (L-enantiomers 100 μM, D-glucosamine 25 μM, 2-deoxy-D-glucose 1 mM), FIG. 8a; for effect on axon growth induced by inosine: 2-DG 1 mM; for effect on axon growth induced by VE<3: FIG. 2; for effect on glucose-induced axon outgrowth: glucose 10 μM (50 μM with late fraction), dBcAMP 1 mM, 3-O-MG 100:1, 2-DG 1 mM
Procedure: Goldfish retinal ganglion cells are prepared as described in PCT application serial no. PCT/US98/03001, the contents of which are incorporated herein by reference, and contacted with a hexose derivative such as mannose. The ability of the hexose derivative to stimulate axonal outgrowth from the goldfish retinal ganglion cells is monitored as described in PCT application serial no. PCT/US98/03001.
Goldfish retinal ganglion cell cultures. Mammalian AF-1 was initially characterized in bioassays using dissociated goldfish retinal ganglion cells (RGCs). In brief, Comet variety goldfish (Mt. Parnell Fisheries, PA) were dark-adapted, cooled to 4° C., and killed by cervical transection. Retinas were dissected and dissociated by incubation in papain followed by a series of trituration steps that result in an RGC-enriched cell suspension (Schwartz & Agronoff,; Schwalb et al., 1995). Approximately 500 RGCs per well were plated together with the experimental samples to be tested in defined, serum-free media containing Leibovitz' L15 media (Gibco BRL) plus N1 and N2 supplements (Bottenstein, Saito), antioxidants, and bovine serum albumin as described in detail elsewhere (Schwalb et al., 1995). In each experiment, 4 wells of each sample were distributed in 24-well plates in a blinded fashion so that the person evaluating axon outgrowth was unaware of the type of sample present in each well. Experiments included a positive control (previously validated goldfish AF-1 or inosine) and a negative control (defined media alone), likewise distributed on the plate in quadruplicate in a blinded fashion. After 6 days in culture at 21° C., axon outgrowth, operationally defined as the percent of RGCs that extended an axon≧5 cell diameters in length, was evaluated in approximately 150 consecutively encountered RGCs per well. […] Data are presented as normalized means ± SEM. All experiments were repeated at least 3 times.

[2] = system: rat retinal ganglion cells; experiment: Rat retinal ganglion cell culture, axon outgrowth; format: cell-based; details: rat RGCs; for axon outgrowth in the presence of forskolin: with forskolin, compared to forskolin alone, glucose up to 5 mM, mannose-6-phosphate up to 10 mM, FIG. 9a, 9c
Text: Rat retinal ganglion cell cultures. Retinal ganglion cells were identified by retrograde labeling with Fluorogold (FG: Fluorochrome, Inc.). […] After allowing 7 days for FG to be retrogradely transported up the optic nerve, rats were killed, eyes were removed, and the retinas dissected. Retinas were dissociated with papain treatment followed by trituration. Mixed cultures containing 100-150 FG-labeled RGCs per well were maintained in 24 well plates in a defined, serum-free media (Minimal Essential Media containing NaHCO3,) at 37° C. at 5% CO2 for 3 days.

[3] = 6-TG 20 μM, NBTI 20 μM, forskolin 10 μM, Sp-cAMPs 150 μM, Rp-cAMPs 100 μM, H89 5 μM, FIG. 2, 4
[4] = forskolin 10 μM, Rp-cAMPs 100 μM, MH 10 mM

O[C@H]1[C@H](O)[C@@H](O)[C@H](O)[C@@H](O)[C@H]1O [myo-inositol]
axon outgrowth in response to monosaccharides [1]: failed to stimulate outgrowth

O=C[C@H](O)[C@@H](O)[C@H](O)[C@H](O)COP(=O)(O)O [D-glucose-6-phosphate]
axon outgrowth, extracellular 6-phosphate ([1]; 100 μM): modest amount of outgrowth
axon outgrowth, extracellular 6-phosphate ([1]; 1 mM): appreciable growth
axon outgrowth in response to glucose/mannose analogs [1]: relatively modest but statistically significant amount of outgrowth
axon outgrowth in response to glucose/mannose analogs ([1]; listed as D-glc-6-P): small but statistically significant level of outgrowth

Nc1ncnc2c1ncn2[C@@H]1O[C@@H]2COP(O)(=S)O[C@H]2[C@H]1O (stereo partly shown) [Sp-cAMPs]
axon outgrowth, agent by itself ([2]; 3 days, no other factor added, forskolin 5 μM in FIG. 9a): little effect on outgrowth
effect on axon growth induced by the low molecular weight vitreous factor (VE<3) ([2]; FIG. 3a): greatly potentiated
effect on axon growth induced by the low molecular weight vitreous factor (VE<3) ([2]; FIG. 3a, listed as Sp-cAMP-s): strongly potentiates
effect on axon growth induced by AF-1 [1, 3]: non-statistically significant decrease in outgrowth
effect on axon growth induced by AF-1 ([1]; 6-TG 20 μM, NBTI 20 μM, forskolin 10 μM, Sp-cAMPs 150 μM, Rp-cAMPs 100 μM, H89 5 μM, FIG. 2, 4, listed as Sp-cAMP-s): not enhanced; also recorded: reduced the level of outgrowth
axon growth induced by cAMP-elevating agent on its own ([1]; forskolin 10 μM, Sp-cAMPs 150 μM, FIG. 4): Neither forskolin (10 μM) nor Sp-cAMPs (150 μM) induced growth on its own
axon growth induced by cAMP-elevating agent on its own ([1]; forskolin 10 μM, Sp-cAMPs 150 μM, FIG. 4, listed as Sp-cAMP-s): Neither forskolin nor Sp-cAMP-s by itself stimulated axon growth

O=C[C@@H](O)[C@H](O)[C@H](O)[C@H](O)CO [D-altrose]
axon outgrowth in response to monosaccharides [1]: failed to stimulate outgrowth

CO[C@H]1O[C@H](CO)[C@@H](O)[C@H](O)[C@H]1O [methyl-α-D-glucopyranoside]
axon outgrowth in response to glucose/mannose analogs [1]: ineffective
axon outgrowth in response to glucose/mannose analogs ([1]; listed as methyl-α-glucose pyranose): No activity

O=C(CO)[C@@H](O)[C@H](O)[C@H](O)CO [fructose]
axon outgrowth in response to monosaccharides [1]: failed to stimulate outgrowth

O=C[C@@H](O)[C@@H](O)[C@H](O)[C@H](O)COP(=O)(O)O [D-mannose-6-phosphate]
axon outgrowth in the presence of forskolin [2]: did not respond
axon outgrowth, extracellular 6-phosphate ([1]; 100 μM): modest amount of outgrowth
axon outgrowth, extracellular 6-phosphate ([1]; 1 mM): appreciable growth
axon outgrowth in response to glucose/mannose analogs [1]: relatively modest but statistically significant amount of outgrowth
axon outgrowth in response to glucose/mannose analogs ([1]; listed as D-man-6-P): small but statistically significant level of outgrowth

CCCCCCOC(=O)[C@]1(O)C[C@@H]2O[C@@]1(C)n1c3ccccc3c3c4c(c5c6ccccc6n2c5c31)C(=O)NC4 [KT5720]
effect on mannose-induced axon outgrowth ([1]; KT5720 1 μM, MH 10 mM, dBcAMP, late fraction with 50 μM mannose): did not diminish the effect of mannose; also recorded: little effect on mannose-induced growth
effect on mannose-induced axon outgrowth ([1]; KT5720 10 μM, FIG. 7f): only a slight effect

CC(=O)N[C@H]1C(O)O[C@H](CO)[C@@H](O)[C@@H]1O (stereo partly shown) [acetylglucosamine, N-acetyl-glucosamine]
axon outgrowth in response to glucose/mannose analogs [1]: ineffective
axon outgrowth in response to glucose/mannose analogs ([1]; listed as N-acetyl-glucosamine): No activity

Nc1nc2nc[nH]c2c(=S)[nH]1 [6-TG, 6-thioguanine]
effect on growth induced by VE<3 plus forskolin or Sp-cAMPs ([2]; 6-TG, FIG. 3a): reduced growth; also recorded: strongly inhibited
effect on axon growth induced by inosine ([1]; 6-TG 20 μM, NBTI 20 μM): only partially blocked; also recorded: only partially inhibited
effect on axon growth induced by AF-1 [1, 3]: below baseline levels
effect on axon growth induced by VE<3 ([1]; 6-TG 20 μM, NBTI 20 μM): below baseline levels; also recorded: inhibited completely

O=C[C@H](O)[C@H](O)[C@@H](O)[C@@H](O)CO [L-mannose]
axon outgrowth in the presence of forskolin [2]: inactivity
axon outgrowth in response to glucose/mannose analogs [1]: completely inactive; also recorded: inactivity

O=CC[C@@H](O)[C@H](O)[C@H](O)CO [2-deoxy-D-glucose]
effect on axon growth induced by inosine ([1]; 6-TG 20 μM, NBTI 20 μM, listed as 2-DG): blocked the effects of both glucose and inosine; also recorded: also blocks the effect of inosine
axon outgrowth in response to glucose/mannose analogs [1]: ineffective; also recorded: No activity
effect on glucose-induced axon outgrowth ([1]; forskolin 10 μM, Rp-cAMPs 100 μM, MH 10 mM, listed as 2-DG): blocked the effects of both glucose and inosine; also recorded: does block the effect of glucose

O=S(=O)(NCCNC/C=C/c1ccc(Br)cc1)c1cccc2cnccc12 [H89]
effect on axon growth induced by AF-1 [1, 3]: not diminished
effect on axon growth induced by AF-1 ([1]; 6-TG 20 μM, NBTI 20 μM, forskolin 10 μM, Sp-cAMPs 150 μM, Rp-cAMPs 100 μM, H89 5 μM, FIG. 2, 4, listed as H-89): did not reduce AF-1 induced growth
effect on axon growth induced by AF-1 ([1]; H89 20 μM, FIG. 4): diminished the effect of AF-1; also recorded: higher concentrations of H89 (20 μM) did

N[C@H]1C(O)O[C@H](CO)[C@@H](O)[C@@H]1O (stereo partly drawn) [D-glucosamine]
axon outgrowth in the presence of forskolin [2]: did not respond
axon outgrowth in response to glucose/mannose analogs [1]: strongly active

C[C@H](O)[C@@H](O)[C@@H](O)[C@H](O)C=O [fucose, L-fucose]
axon outgrowth in response to glucose/mannose analogs [1]: ineffective
axon outgrowth in response to glucose/mannose analogs ([1]; listed as L-fucose): No activity

O=C[C@H](O)[C@H](O)[C@H](O)[C@H](O)CO [D-allose]
axon outgrowth in response to monosaccharides [1]: failed to stimulate outgrowth

N[C@@H]1C(O)O[C@H](CO)[C@@H](O)[C@@H]1O (stereo partly drawn) [D-mannosamine]
axon outgrowth in response to glucose/mannose analogs [1]: ineffective

O=C(CO)[C@H](O)[C@@H](O)[C@H](O)CO [sorbose]
axon outgrowth in response to monosaccharides [1]: failed to stimulate outgrowth

O=[N+]([O-])c1ccc(CSc2ncnc3c2ncn3[C@@H]2O[C@H](CO)[C@@H](O)[C@H]2O)cc1 [NBTI, 4-(nitrobenzyl-6-thioinosine)]
effect on axon growth induced by inosine ([1]; 6-TG 20 μM, NBTI 20 μM): effectively blocked; also recorded: blocked completely
effect on axon growth induced by AF-1 [1, 3]: very little effect
effect on axon growth induced by VE<3 ([1]; 6-TG 20 μM, NBTI 20 μM): very little effect; also recorded: not affected

COC(=O)C(C)=O [methyl pyruvate]
effect on outgrowth of adding energy substrate to the media ([1]; 5 mM): had no effect

CO[C@@H]1O[C@H](CO)[C@@H](O)[C@H](O)[C@H]1O [methyl-β-D-glucopyranoside]
axon outgrowth in response to glucose/mannose analogs [1]: ineffective
axon outgrowth in response to glucose/mannose analogs ([1]; listed as methyl-β-glucose pyranose): No activity

Nc1ncnc2c1ncn2[C@@H]1O[C@@H]2CO[P@@](O)(=S)O[C@H]2[C@H]1O [Rp-cAMPs]
effect on axon growth induced by AF-1 [1, 3]: not diminished
effect on axon growth induced by AF-1 ([1]; 6-TG 20 μM, NBTI 20 μM, forskolin 10 μM, Sp-cAMPs 150 μM, Rp-cAMPs 100 μM, H89 5 μM, FIG. 2, 4, listed as Rp-cAMP-s): did not reduce AF-1 induced growth
block of glucose-induced outgrowth ([1]; Rp-cAMPs 1 mM): 48%
effect on glucose-induced axon outgrowth [1, 4]: no effect on glucose-induced outgrowth

O=C[C@H](O)[C@@H](O)[C@@H](O)[C@H](O)CO [D-galactose]
axon outgrowth in response to monosaccharides [1]: failed to stimulate outgrowth

O=C[C@@H](O)[C@@H](O)[C@@H](O)[C@H](O)CO [D-talose]
axon outgrowth in response to monosaccharides [1]: failed to stimulate outgrowth

CO[C@@H]([C@H](O)[C@H](O)CO)[C@@H](O)C=O [3-O-methyl-D-glucose]
axon outgrowth in response to glucose/mannose analogs [1]: ineffective; also recorded: No activity
effect on glucose-induced axon outgrowth [1, 4]: fails to block the effect of glucose
